Data: patent publication US20240009191A1, “METHOD AND COMPOSITION FOR THE TREATMENT OF DISEASE” (DIMERIX BIOSCIENCE PTY LTD, priority 2019, published 2024)

Target: T1, AT1R-CXCR2 heteromer (Homo sapiens, UniProt P25025+P30556)
T1 sequence (P25025 1-360): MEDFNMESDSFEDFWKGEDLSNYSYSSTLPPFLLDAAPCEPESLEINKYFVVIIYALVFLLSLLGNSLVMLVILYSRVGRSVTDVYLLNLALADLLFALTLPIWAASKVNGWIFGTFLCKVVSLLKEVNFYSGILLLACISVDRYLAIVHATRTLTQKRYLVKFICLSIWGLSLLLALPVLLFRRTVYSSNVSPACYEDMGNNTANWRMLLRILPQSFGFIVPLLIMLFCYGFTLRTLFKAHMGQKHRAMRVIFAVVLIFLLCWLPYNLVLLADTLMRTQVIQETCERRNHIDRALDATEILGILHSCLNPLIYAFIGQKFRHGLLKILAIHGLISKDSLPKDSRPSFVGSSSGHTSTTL
T1 sequence (P30556 1-359): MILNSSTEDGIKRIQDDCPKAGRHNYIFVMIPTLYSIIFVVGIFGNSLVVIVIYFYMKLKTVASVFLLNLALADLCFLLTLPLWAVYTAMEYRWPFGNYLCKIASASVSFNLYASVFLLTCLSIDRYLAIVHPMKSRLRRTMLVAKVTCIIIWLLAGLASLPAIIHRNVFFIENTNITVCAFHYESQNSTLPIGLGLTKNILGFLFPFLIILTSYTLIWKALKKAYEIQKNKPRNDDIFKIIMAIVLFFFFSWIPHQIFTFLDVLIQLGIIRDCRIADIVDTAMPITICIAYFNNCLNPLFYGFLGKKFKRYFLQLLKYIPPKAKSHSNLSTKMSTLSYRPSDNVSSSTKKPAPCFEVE
Assay: BRET trafficking of CXCR2/Rluc8 to Venus/Kras or Venus/Rab markers, presence of HA-AT1R
Type: cell-based
Procedure: HEK293FT cells were seeded in 6-well plates at a density of approximately 700,000 cells/well and maintained at 37° C., 5% CO2 in Complete Media (DMEM containing 0.3 mg/ml glutamine, 100 IU/ml penicillin and 100 μg/ml streptomycin (Gibco/Thermo Fisher)) supplemented with 10% fetal calf serum (FCS; Bovogen). Transient transfections were carried out 24 h after seeding using FuGene6™ (Promega) according to manufacturer instructions. 24 h post-transfection, cells were washed with PBS, detached using 0.05% trypsin/0.53 mM EDTA, resuspended in HEPES-buffered phenol red free Complete Media containing 5% FCS and added to a poly-L-lysine-coated white 96-well microplate (Greiner Bio-One). 48 h post-transfection, bioluminescence resonance energy transfer (BRET) assays were carried out following pre-incubation of cells with EnduRen™ (Promega) at a final concentration of 30 μM, at 37° C., 5% CO2 for 2 h. BRET measurements were taken at 37° C. using the LUMlstar™ or CLARIOstar™ (BMG Labtech). Filtered light emissions were measured for 1 s in each of the ‘donor wavelength window’ (460-490 nm for LUMlstar™ or 410-490 nm for CLARIOstar™) and ‘acceptor wavelength window’ (520-550 nm for LUMlstar™ or 520-620 nm for CLARIOstar™).
The BRET signal observed between interacting proteins is normalized by subtracting the background BRET ratio. This can be done in one of two ways (see Pfleger et al. (2006) Cell Signal 18:1664-1670; Pfleger et al. (2006) Nat Protoc 1:336-344): 1) the ratio of the 520-550 nm or 520-620 nm emission over the 460-490 nm or 410-490 nm emission for a cell sample containing only the donor construct is subtracted from the same ratio for a sample containing the interacting acceptor and donor fusion proteins; 2) the ratio of the 520-550 nm or 520-620 nm emission over the 460-490 nm or 410-490 nm emission for a cell sample treated with vehicle is subtracted from the same ratio for a second aliquot of the same cell sample treated with ligand. In the following examples, the second calculation will be used and the signal is described as ligand-induced BRET′. Furthermore, for data shown in FIGS. 4 to 20, all data points in a given set are corrected relative to the final data point prior to agonist treatment, which is fixed to zero. In keys on FIGS. 7 to 20, “>” means “followed by after 50 minutes”, with agonists added at time zero on the x-axes.
The Receptor-Heteromer Investigation Technology (Receptor-HIT) is an assay configuration that provides insights into receptor complexes (Ayoub et al. (2015) PLoS One 10(3):e0119803). It is also known as GPCR-HIT when assessing GPCRs. It is an assay configuration whereby one receptor (eg. CXCR2) is labelled with one component (eg. Renilla luciferase variant Rluc8) of a proximity-based reporter system (eg. BRET), the complementary component of which (eg. Venus yellow fluorescent protein) is fused to a receptor interacting partner (eg. mGsi).
Referring now to FIG. 3 (published in Tiulpakov et al (2016) Mol. Endocrinol. 30, 889-904), the proximity of Rluc8-tagged receptors to Venus-tagged Kras plasma membrane marker, or Venus-tagged Rabs specific for distinct subcellular locations, is monitored in live cells and in real-time using BRET. The Rab markers are: Venus/Rab5 (5) for early endosomes; Venus/Rab4 (4) for early endosome recycling; Venus/Rab11a (11) for recycling endosomes; Venus/Rab7 (7) for late endosomes/lysosomes; Venus/Rab9 (9) for late endosome trafficking to the trans-Golgi network; Venus/Rab1 (1) for endoplasmic reticulum trafficking to the cis-Golgi; Venus/Rab6 (6) for Golgi apparatus and trans-Golgi network; or Venus/Rab8 (8) for trans-Golgi network to plasma membrane.

Angiotensin II [AngII]
proximity of CXCR2/Rluc8 to Venus/Kras (BRET): increased proximity | proximity of CXCR2/Rluc8 to Venus/Rab1 (BRET): barely any effect | proximity of CXCR2/Rluc8 to Venus/Rab4 (BRET): very small increase | proximity of CXCR2/Rluc8 to Venus/Rab5 (BRET): very small increase | proximity of CXCR2/Rluc8 to Venus/Rab6 (BRET): small increase | proximity of CXCR2/Rluc8 to Venus/Rab7 (BRET): barely any effect | proximity of CXCR2/Rluc8 to Venus/Rab8 (BRET): clear increase | proximity of CXCR2/Rluc8 to Venus/Rab9 (BRET): small increase | proximity of CXCR2/Rluc8 to Venus/Rab11a (BRET): barely any effect
